Measurements taken from the supplement of paper PMC13380429.

Columns and labels:
Settings in all cases: 72 h
Vero E6 [1] = assay: relative viability EC50 (midpoint between 100% and the lowest measured viability); higher = less toxic
Caco-2 [2] = assay: as above
Calu-3 [3] = assay: as above
U2OS [4] = assay: as above
HepG2 [5] = assay: as above
Vero E6 [6] = assay: cell viability relative to DMSO; higher = less toxic
Caco-2 [7] = assay: as above
Calu-3 [8] = assay: as above
U2OS [9] = assay: as above
HepG2 [10] = assay: as above
Vero E6 [11] = assay: drug sensitivity score (DSS) for viability; higher = more toxic; extreme values may be limits of the assay
Caco-2 [12] = assay: as above
Calu-3 [13] = assay: as above
U2OS [14] = assay: as above
HepG2 [15] = assay: as above

Structure (SMILES) | relative viability EC50 (Vero E6 [1]) [µM] | relative viability EC50 (Caco-2 [2]) [µM] | relative viability EC50 (Calu-3 [3]) [µM] | relative viability EC50 (U2OS [4]) [µM] | relative viability EC50 (HepG2 [5]) [µM] | cell viability (Vero E6 [6]; 1 nM) [%] | cell viability (Vero E6 [6]; 10 nM) [%] | cell viability (Vero E6 [6]; 100 nM) [%] | cell viability (Vero E6 [6]; 1000 nM) [%] | cell viability (Vero E6 [6]; 10000 nM) [%] | cell viability (Caco-2 [7]; 1 nM) [%] | cell viability (Caco-2 [7]; 10 nM) [%] | cell viability (Caco-2 [7]; 100 nM) [%] | cell viability (Caco-2 [7]; 1000 nM) [%] | cell viability (Caco-2 [7]; 10000 nM) [%] | cell viability (Calu-3 [8]; 1 nM) [%] | cell viability (Calu-3 [8]; 10 nM) [%] | cell viability (Calu-3 [8]; 100 nM) [%] | cell viability (Calu-3 [8]; 1000 nM) [%] | cell viability (Calu-3 [8]; 10000 nM) [%] | cell viability (U2OS [9]; 1 nM) [%] | cell viability (U2OS [9]; 10 nM) [%] | cell viability (U2OS [9]; 100 nM) [%] | cell viability (U2OS [9]; 1000 nM) [%] | cell viability (U2OS [9]; 10000 nM) [%] | cell viability (HepG2 [10]; 1 nM) [%] | cell viability (HepG2 [10]; 10 nM) [%] | cell viability (HepG2 [10]; 100 nM) [%] | cell viability (HepG2 [10]; 1000 nM) [%] | cell viability (HepG2 [10]; 10000 nM) [%] | drug sensitivity score (Vero E6 [11]) | drug sensitivity score (Caco-2 [12]) | drug sensitivity score (Calu-3 [13]) | drug sensitivity score (U2OS [14]) | drug sensitivity score (HepG2 [15])
COc1nccnc1NS(=O)(=O)c1ccc(N)cc1 [sulfametopyrazine] | > 10 | > 10 | > 10 | > 10 | > 10 | 102 | 107 | 95.2 | 100 | 97.5 | 99.7 | 87.3 | 101 | 89.7 | 102 | 98.5 | 97 | 98.1 | 101 | 102 | 102 | 95.4 | 104 | 96.8 | 98.9 | 97.6 | 99.7 | 103 | 91.9 | 99.4 | 0 | 0 | 0 | 0 | 0
N#Cc1ccc(-c2ccc(S(=O)(=O)Nc3cccc(N)n3)cc2)cc1 | > 10 | > 10 | > 10 | > 10 | > 10 | 97.4 | 96.3 | 95.9 | 93.9 | 90.8 | 87.9 | 95.5 | 95.4 | 96.7 | 91 | 99.6 | 104 | 98.9 | 107 | 104 | 101 | 97.2 | 101 | 99.4 | 95.1 | 100 | 98.3 | 104 | 97.6 | 79 | 0 | 0 | 0 | 0 | 1
CC(=O)OCC(=O)[C@@]1(O)CC[C@H]2[C@@H]3CCC4=CC(=O)CC[C@]4(C)[C@H]3[C@@H](O)C[C@@]21C [hydrocortisone-acetate] | > 10 | > 10 | > 10 | > 10 | > 10 | 95.7 | 99.4 | 96.2 | 95.4 | 101 | 92.6 | 94.4 | 106 | 97.6 | 107 | 93.8 | 102 | 97.9 | 96.8 | 89.2 | 94.6 | 97 | 93 | 97.7 | 98.6 | 101 | 105 | 105 | 99.5 | 103 | 0 | 0 | 0 | 0 | 0
CNC(=O)c1ccc2c(c1)S(=O)(=O)c1ccccc1C2=O [BW-616U] | > 10 | > 10 | > 10 | > 10 | > 10 | 95.2 | 95.9 | 98.1 | 109 | 106 | 96.6 | 108 | 111 | 92.4 | 99.4 | 115 | 104 | 102 | 100 | 96.7 | 99.1 | 95 | 100 | 99.4 | 98.9 | 109 | 106 | 92.7 | 110 | 104 | 0 | 0 | 0 | 0 | 0
OC(c1ccccc1)(c1ccccc1)C1CCNCC1 [azacyclonol] | > 10 | > 10 | > 10 | > 10 | > 10 | 105 | 100 | 102 | 99.9 | 99.9 | 93.6 | 102 | 97 | 102 | 93.6 | 88.6 | 99.5 | 90 | 97 | 101 | 102 | 99.2 | 98.5 | 102 | 97.1 | 116 | 91.6 | 101 | 97.8 | 93 | 0 | 0 | 0 | 0 | 0
COc1ccc([C@@H]2CC(=O)c3c(O)cc(O[C@@H]4O[C@H](CO[C@@H]5O[C@@H](C)[C@H](O)[C@@H](O)[C@H]5O)[C@@H](O)[C@H](O)[C@H]4O)cc3O2)cc1O [hesperidin] | > 10 | > 10 | > 10 | > 10 | > 10 | 103 | 102 | 99 | 98.5 | 99.8 | 98.3 | 103 | 97.5 | 88.1 | 98.9 | 89.1 | 86.3 | 91.6 | 97.9 | 101 | 97.5 | 97.9 | 102 | 99.7 | 104 | 99 | 109 | 99.1 | 103 | 83.7 | 0 | 0 | 0 | 0 | 0.2
Cc1nnsc1C(=O)Nc1ccc(-n2nc(C(F)(F)F)cc2C(F)(F)F)cc1 | > 10 | > 10 | > 10 | > 10 | > 10 | 95.9 | 96.2 | 94.7 | 97.8 | 95.6 | 93.4 | 83.8 | 105 | 87.2 | 85.1 | 101 | 98.4 | 95.2 | 104 | 99.9 | 99.9 | 97.9 | 100 | 100 | 99.1 | 94.5 | 98.8 | 105 | 107 | 90.9 | 0 | 0.2 | 0 | 0 | 0
CCOc1ccc(Cc2cc([C@]34OC[C@](CO)(O3)[C@@H](O)[C@H](O)[C@H]4O)ccc2Cl)cc1 [ertugliflozin] | > 10 | > 10 | > 10 | > 10 | > 10 | 102 | 104 | 95.1 | 101 | 102 | 96.8 | 96.9 | 90.5 | 89.9 | 103 | 106 | 99.1 | 104 | 98.7 | 96.4 | 101 | 102 | 102 | 98.1 | 101 | 108 | 109 | 107 | 98.6 | 98.6 | 0 | 0 | 0 | 0 | 0
Cc1nc(-c2cccnc2)sc1C(=O)Nc1ccccc1-c1cn2c(CN3CCOCC3)csc2n1 [SRT2104] | > 10 | > 10 | > 10 | > 10 | > 10 | 98 | 94.9 | 92.9 | 90.8 | 106 | 90.6 | 92.2 | 104 | 99.2 | 102 | 93.6 | 98.8 | 102 | 104 | 112 | 95.5 | 104 | 94.6 | 101 | 99.2 | 100 | 92.8 | 98.8 | 90.6 | 108 | 0 | 0 | 0 | 0 | 0
Nc1ccc(C(=O)O)cc1 [potassium-p-aminobenzoate] | > 10 | > 10 | > 10 | > 10 | > 10 | 105 | 105 | 104 | 97.1 | 100 | 95.6 | 97.1 | 95.1 | 102 | 102 | 107 | 97.1 | 99 | 105 | 103 | 96.2 | 101 | 94.4 | 103 | 94.9 | 102 | 93.6 | 109 | 112 | 103 | 0 | 0 | 0 | 0 | 0
COc1ccc2cc1Oc1cc3c(cc1OC)CC[N+](C)(C)[C@H]3Cc1ccc(cc1)Oc1c(OC)c(OC)cc3c1[C@@H](C2)[N+](C)(C)CC3 [metocurine] | > 10 | > 10 | > 10 | > 10 | > 10 | 91.5 | 96.8 | 91.6 | 102 | 105 | 95.7 | 92.2 | 94.8 | 108 | 105 | 102 | 88.4 | 105 | 96.5 | 93.2 | 97.6 | 99.3 | 106 | 102 | 99.4 | 93.3 | 115 | 86.2 | 108 | 111 | 0 | 0 | 0 | 0 | 0
COc1ccc(-c2cc3c(C)nc(N)nc3n([C@H]3CC[C@H](OCCO)CC3)c2=O)cn1 | 0.21 | 0.114 | 0.0917 | 0.504 | 0.202 | 94 | 98.4 | 74.4 | 30 | 17 | 92.5 | 89.9 | 67.1 | 27.7 | 23.4 | 85.3 | 87.3 | 56 | 19.6 | 10 | 100 | 95 | 89.1 | 32.6 | 3.8 | 104 | 103 | 77.5 | 28.7 | 20.1 | 16 | 17.2 | 20.8 | 14.2 | 15.9
CSc1ccc(C(=O)c2[nH]c(=O)[nH]c2C)cc1 [enoximone] | > 10 | > 10 | > 10 | > 10 | > 10 | 99.6 | 99.6 | 86 | 90.6 | 94.9 | 92.8 | 87.2 | 100 | 111 | 87 | 106 | 101 | 94.2 | 96.7 | 101 | 99.2 | 97.9 | 101 | 108 | 105 | 96.6 | 95.8 | 103 | 82.5 | 100 | 0 | 0 | 0 | 0 | 0
CC(=O)NCCC(=O)N[C@@H](Cc1c[nH]cn1)C(=O)O [N-acetylcarnosine] | > 10 | > 10 | > 10 | > 10 | > 10 | 112 | 92.1 | 102 | 108 | 98.4 | 97.3 | 105 | 88.7 | 86.5 | 112 | 106 | 99.2 | 94.5 | 101 | 96.3 | 98 | 101 | 101 | 97.5 | 94.7 | 98.8 | 88.3 | 93.3 | 96.2 | 87.9 | 0 | 0 | 0 | 0 | 0
